These are literature values, as cited in US9962342B1, “Pharmaceutical composition containing guaifenesin and application thereof” (Sunny Pharmtech Inc., priority 2017, dated 2018).

The conditions of this series: in vivo.

For `COc1ccccc1OCC(O)CO` (stereo not shown) [Guaifenesin], the half-life result was “approximately 1 hour”.
